Measured values reported in patent EP0819136B1, “MDP DERIVATIVES AND CONJUGATES HAVING HAEMATOPOIETIC FUNCTION STIMULATING ACTIVITY, AND COMPOSITIONS CONTAINING SAME” (VACSYN S.A., priority 1995, dated 1996).

Assays:
myélocytes circulants [1] = experiment: Circulating myelocytes 24 h after 4 daily oral administrations of AZT and/or Muradimétide (Example 4, Table 3); format: in vivo, souris; settings: for Nbre de myélocytes circulants: 24 h after 4 daily administrations
Method: Le tableau 3 ci-dessous et la figure 11 indiquent l'effet d'un traitement per os des souris avec du Muradimétide avant, en même temps ou après l'AZT administré à 50 mg par kg, sur le nombre de myélocytes circulants testés 24 heures après 4 administrations quotidiennes. Tableau 3
Le nombre moyen de myélocytes circulant avant le traitement se situe entre 3 et 15 X 10^4 cellules par ml dans les 5 groupes.
La « P-value » a été calculée par le test Mann Whitney U Rank.
NS signifie que la différence n'est pas significative. Ce tableau confirme que l'augmentation des myélocytes circulants est d'environ 200 quand il y a effet conjoint de l'AZT et du Muradimétide. Les deux constituants de la combinaison ont été administrés per os soit simultanément soit à des temps séparés.

[2] = tested on: globules rouges et les plaquettes; experiment: Red blood cell and platelet counts after 7 days of oral AZT, Muradimétide or both (Example 3, figures 9 and 10); format: in vivo, souris femelles BALB/c; settings: p.o. once daily for 7 days: 100 mg/kg AZT, 50 mg/kg muradimétide, or both simultaneously; counts up to day 10
From the text: La figure 9 représente l'effet du traitement per os de souris BALB/c pendant 7 jours consécutifs avec de l'AZT, du Muradimétide (MDM) ou un mélange de ceux-ci sur la numération plaquettaire.
La figure 10 représente l'effet du traitement per os de souris BALB/c pendant 7 jours consécutifs avec de l'AZT, du Muradimétide (MDM) ou un mélange de ceux-ci sur le nombre des globules rouges.
L'effet d'un traitement de 7 jours sur le nombre de globules rouges et de plaquettes est indiqué dans les figures 9 et 10 respectivement. Les numérations sont représentées en pourcentage de celles obtenues au jour 0. Des souris femelles BALB/c (5 par groupe) sont traitées une fois par jour pendant 7 jours consécutifs par 100 mg/kg d'AZT (Δ), 50 mg/kg de muradimétide (D) ou simultanément par 100 mg/kg d'AZT et 50 mg/kg de muradimétide (O). Les comptages de plaquettes ou de globules rouges ont été réalisés au jour 0 et jusqu'à 10 jours suivant le début du traitement. […] La tendance à l'augmentation de leur nombre apparaît entre les jours 4 et 5. En revanche, l'anémie qui pourrait être observée dans les groupes traités pourrait être due aux saignements répétés; néanmoins la vitesse et l'importance de l'anémie est grandement réduite chez les animaux traités avec le mélange des deux produits en comparaison avec celui observé dans le groupe traité par l'AZT seul. […]

myélocytes circulants [3] = experiment: Circulating myelocytes during two weeks of oral treatment, 4 days per week (Example 4, figure 11); format: in vivo, souris; settings: p.o. days 0, 1, 2, 3 and 7, 8, 9, 10; MDM 25 mg/kg, AZT 50 mg/kg or both
Method: La figure 11 représente l'effet d'un traitement per os de souris pendant deux semaines consécutives (4 jours par semaine) avec l'AZT, le Muradimétide ou le mélange des deux sur le nombre des myélocytes circulants.
La figure 11 montre l'effet d'un traitement par le MDM à 25 mg/kg (X), de l'AZT à 50 mg/kg (O) et du mélange des deux (□) sur le comptage des myélocytes de souris traitées pendant 2 semaines aux jours 0, 1, 2, 3 de la première semaine et 7, 8, 9, 10 de la deuxième semaine. […] Si l'effet est surtout marqué au niveau de la première semaine, cela montre que le traitement nécessite un certain espace de temps entre les différents cycles de traitement et que des traitements répétés pourraient, le cas échéant, être utiles.

CSH = CSH mobilisation in cyclophosphamide-treated mice after oral AZT, MDM or both (Example 6, figure 13); format: in vivo, souris; settings: cyclophosphamide 200 mg/kg s.c. day 0; oral MDM 25 mg/kg alone days 0, 1, 2, 3
Method: La figure 13 représente une expérience similaire sur des souris normales qui ont préalablement reçu un traitement par une drogue cytotoxique : la cyclophosphamide.
L'effet du traitement ci-dessus pour compenser l'effet cytotoxique des chimiothérapies a été étudié en traitant les souris par le cyclophosphamide.
Les souris traitées par une simple injection sous-cutanée de cyclophosphamide (dose de 200 mg/kg) au jour 0 ont été ensuite divisées entre 4 groupes et ont reçu oralement, outre de l'eau physiologique (X), de l'AZT à 50 mg/kg (□), du MDM à 25 mg/kg (Δ) ou du mélange de ceux-ci (O). Le traitement oral a été effectué aux jours 0, 1, 2 et 3 et les numérations cellulaires ont été évaluées jusqu'à 14 jours après le commencement du traitement. Les résultats sont indiqués dans la figure 13. Là-encore, il apparaît évident qu'une très forte mobilisation a lieu surtout en présence du mélange d'AZT et de MDM.

[4] = tested on: neutrophiles, leucocytes et myélocytes; experiment: Blood cell counts in mice given i.v. AZT 40 mg/kg plus Muradimétide i.v. or p.o. (Example 2); format: in vivo, souris CDI mâles
Method: Le traitement par l'AZT seul induit classiquement une diminution du nombre des leucocytes et des neutrophiles circulants. Cette diminution est suivie par une reconstitution intervenant environ 4 à 7 jours après le début du traitement. Quand le Muradimétide a été administré par voie générale ou par la voie orale après un traitement par 40 mg/kg d'AZT, il n'y a pas de baisse du nombre de cellules et au contraire il y a une multiplication par au moins 1,5 du nombre de leucocytes et un triplement de celui des neutrophiles et cela dès après 4 jours. Les résultats sont représentés dans le tableau 2 ci-dessous.
Des souris CDI mâles (5 par groupe) ont été injectées avec de l'AZT à la dose de 40 mg par kg aux jours 0 à 3. Le Muradimétide est administré les mêmes jours à la dose de 10 mg par kg en intraveineux ou de 50 mg par kg per os. Les comptages cellulaires sont réalisés au jour 0 (avant le traitement), et aux jours 3 et 4. Tableau 2

[5] = AZT 40 mg/kg i.v. days 0-3 + Muradimétide i.v. 10mg/kg days 0-3, day 0 (before treatment)
[6] = AZT 40 mg/kg i.v. days 0-3 + Muradimétide i.v. 10mg/kg days 0-3, day 3
[7] = AZT 40 mg/kg i.v. days 0-3 + Muradimétide i.v. 10mg/kg days 0-3, day 4
[8] = AZT 40 mg/kg i.v. days 0-3 + Muradimétide p.o 50 mg/Kg days 0-3, day 0 (before treatment)
[9] = AZT 40 mg/kg i.v. days 0-3 + Muradimétide p.o 50 mg/Kg days 0-3, day 3
[10] = AZT 40 mg/kg i.v. days 0-3 + Muradimétide p.o 50 mg/Kg days 0-3, day 4
[11] = Muradimétide by general or oral route after AZT 40 mg/kg, after 4 days

For `COC(=O)CC[C@@H](NC(=O)[C@H](C)NC(=O)[C@@H](C)O[C@H]1[C@H](O)[C@@H](CO)OC(O)[C@@H]1NC(C)=O)C(=O)OC` (stereo partly drawn) [Muradimétide, Nac-Mur-L-Ala-D-Glu-[OCH3]-OCH3], the “Nbre de myélocytes circulants” value (myélocytes circulants [1]; AZT 50mg/Kg p.o. at 0 h + Muradimetide 25mg/Kg p.o. at 0 h) was 215 ± 51 x 10^4/ml, the “Nbre de myélocytes circulants” value (myélocytes circulants [1]; AZT 50mg/Kg p.o. at 0 h + Muradimetide 25mg/Kg p.o. at -4 h) was 194 ± 50 x 10^4/ml and the “Nbre de myélocytes circulants” value (myélocytes circulants [1]; AZT 50mg/Kg p.o. at -4 h + Muradimetide 25mg/Kg p.o. at 0 h) was 187 ± 42 x 10^4/ml. For the same compound, the “Nbre de myélocytes circulants” value (myélocytes circulants [1]; Muradimetide 25mg/Kg p.o. alone at 0 h) was 17 ± 15 x 10^4/ml, the “augmentation des myélocytes circulants” value (myélocytes circulants [1]; joint effect of AZT 50 mg/kg and Muradimétide 25 mg/kg p.o., simultaneously or at separate times) was about 200 and the “toxicité sur les plaquettes” value [2] was “Aucune toxicité”. For the same compound, the “effet sur la mobilisation des CHS (comptage des myélocytes)” value (myélocytes circulants [3]) was “effet significatif”, the “numération des neutrophiles circulants” value (CSH) was “effet similaire mais nettement moins marqué” and the “pourcentage de myélocytes ou de promyélocytes (result in words)” value ([4]; AZT 40 mg/kg i.v. + Muradimétide, whatever the route of administration) was “augmentation spectaculaire”. The Leucocytes [4, 5] was 6.0 ± 3.4 x 10^6/ml, the Myelocytes [4, 5] was 5 ± 7 x 10^4 /ml and the Neutrophiles [4, 5] was 2.0 ± 1.3 x 10^6 /ml. The Leucocytes [4, 6] was 5.9 ± 2.9 x 10^6/ml, the Myelocytes [4, 6] was 145 ± 83 x 10^4 /ml and the Neutrophiles [4, 6] was 1.5 ± 0.8 x 10^6 /ml. The Leucocytes [4, 7] was 7.6 ± 1.6 x 10^6/ml, the Myelocytes [4, 7] was 117 ± 46 x 10^4 /ml and the Neutrophiles [4, 7] was 4.6 ±1.5 x 10^6 /ml. The Leucocytes [4, 8] was 4.8 ± 0.4 x 10^6/ml, the Myelocytes [4, 8] was 14 ± 13 x 10^4 /ml and the Neutrophiles [4, 8] was 1.4 ± 0.5 x 10^6 /ml. The Leucocytes [4, 9] was 6.1 ± 1.4 x 10^6/ml, the Myelocytes [4, 9] was 123 ± 55 x 10^4 /ml and the Neutrophiles [4, 9] was 1.6 ± 0.5 x 10^6 /ml. For the same compound, the Leucocytes [4, 10] was 8.1 ± 2.9 x 10^6/ml, the Myelocytes [4, 10] was 138 ± 59 x 10^4 /ml and the Neutrophiles [4, 10] was 4.3 ± 2.47 x 10^6 /ml. The “multiplication du nombre de leucocytes” value [4, 11] was ≥ 1,5 and the “nombre de neutrophiles (fold change)” value [4, 11] was “triplement”.
